# Like-named read-outs stand apart in the source and are kept apart here.
# Experiments:
# [1] = target: recombinant human GALK1 (Homo sapiens, UniProt P51570); test: hGALK1 biochemical activity assay (Kinase-Glo Plus, ATP depletion)
# Description: In vitro hGALK1 activity assays were performed as previously described. Liu et al., Bioorg. Med. Chem. Lett. 25(3): 721-727 (2015), which is incorporated by reference herein for the specific teachings thereof. The biochemical assay was performed by coupling the activity of recombinant human or mouse GALK1 to the Kinase-Glo Plus luminescent ATP detection kit, using ATP depletion as a measure of GALK1 turnover. Specifically, three μL/well of ATP substrate solution (35 μM ATP) in assay buffer (20 mM HEPES pH 8.0, 5 mM MgCl2, 60 mM NaCl, 1 mM DTT, 0.01% BSA final concentration) was dispensed into 1536-well assay plates (Greiner, white solid-bottom medium-binding plates). Aliquots of compound (23 nL solubilized in DMSO) were transferred to the assay plates using a Kalypsys 1536-well pintool such that 11 concentrations with 1/3 dilutions ranging from 57.4 μM-0.97 nM are tested. One μL/well of GALK-galactose solution (5 nM GALK1, 100 μM galactose) in assay buffer was then added, yielding a final reaction volume of 4 μL/well. Following a 1-hour room temperature incubation, 4 μL of Kinase-Glo Plus detection reagent was added to provide an ATP-dependent luminescent readout (final assay volume: 8 μL/well).
# [2] = rat microsomal stability (RLM)
# [3] = aqueous kinetic solubility
# [4] = target: recombinant mouse GALK1 (Mus musculus, UniProt Q9R0N0); test: mGALK1 biochemical activity assay (Kinase-Glo Plus, ATP depletion)
# Description: In vitro hGALK1 activity assays were performed as previously described. Liu et al., Bioorg. […] The biochemical assay was performed by coupling the activity of recombinant human or mouse GALK1 to the Kinase-Glo Plus luminescent ATP detection kit, using ATP depletion as a measure of GALK1 turnover. […] One μL/well of GALK-galactose solution (5 nM GALK1, 100 μM galactose) in assay buffer was then added, yielding a final reaction volume of 4 μL/well. Following a 1-hour room temperature incubation, 4 μL of Kinase-Glo Plus detection reagent was added to provide an ATP-dependent luminescent readout (final assay volume: 8 μL/well).
# [5] = PAMPA permeability
# [6] = recombinant human GALK1, Kinase-Glo Plus ATP depletion, read-out: hGALK
# [7] = recombinant mouse GALK1, Kinase-Glo Plus ATP depletion, read-out: mGALK
# [8] = Tables 2-15, 35 μM ATP, 100 μM galactose, 1 h, bracketed figure after some values is undefined and not reported, read-out: mGALK IC50
# [9] = Tables 2-15, 35 μM ATP, 100 μM galactose, 1 h, bracketed figure after some values (e.g. −1.2) is undefined and not reported, read-out: hGALK IC50
# Sequence of recombinant human GALK1 (P51570 whole entry): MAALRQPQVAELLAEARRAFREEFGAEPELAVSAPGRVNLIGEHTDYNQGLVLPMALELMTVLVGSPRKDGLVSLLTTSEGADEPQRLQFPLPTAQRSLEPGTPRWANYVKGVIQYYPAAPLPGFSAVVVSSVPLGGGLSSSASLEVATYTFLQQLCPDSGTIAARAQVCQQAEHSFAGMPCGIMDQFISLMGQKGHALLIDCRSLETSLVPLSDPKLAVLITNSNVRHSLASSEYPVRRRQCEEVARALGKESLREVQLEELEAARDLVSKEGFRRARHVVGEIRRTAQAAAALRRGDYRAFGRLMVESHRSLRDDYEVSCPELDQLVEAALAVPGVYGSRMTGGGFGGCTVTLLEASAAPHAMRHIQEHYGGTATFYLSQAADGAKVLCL
# Sequence of recombinant mouse GALK1 (Q9R0N0 whole entry): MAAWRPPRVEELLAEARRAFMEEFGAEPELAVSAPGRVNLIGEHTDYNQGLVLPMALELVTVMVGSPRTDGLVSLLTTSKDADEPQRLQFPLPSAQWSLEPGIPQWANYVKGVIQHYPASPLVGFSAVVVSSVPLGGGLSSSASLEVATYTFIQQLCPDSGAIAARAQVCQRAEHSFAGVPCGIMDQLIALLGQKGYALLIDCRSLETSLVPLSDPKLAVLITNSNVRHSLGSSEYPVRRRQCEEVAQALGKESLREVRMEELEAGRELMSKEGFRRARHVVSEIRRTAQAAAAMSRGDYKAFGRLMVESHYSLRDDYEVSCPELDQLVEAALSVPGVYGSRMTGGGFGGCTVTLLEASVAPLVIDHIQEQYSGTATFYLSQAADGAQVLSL
SMILES,"IC50 [1, 6] [µM]",Metab. Stabil. (m) ([2]; microsomal half-life),Sol. [3] [µg/mL],"IC50 [4, 7] [µM]",Perm. (1 × 10^−6 cm/sec) [5],Metab. Stabil. (m) ([2]; microsomal stability half-life),Perm. (1 × 10^−6 cm/sec) ([5]; PAMPA),Sol. ([3]; aqueous kinetic solubility) [µg/mL],"mGALK (μM) ([4]; recombinant mouse GALK1, Kinase-Glo Plus ATP depletion)","IC50 [4, 8] [µM]","IC50 [1, 9] [µM]"
"COc1ccc(C(=O)O)cc1NC(=O)C1=C(C)NC(Nc2nc3ccc(F)cc3o2)=NC1c1ccccc1Cl (stereo not shown) [Compound 27, 3-(4-(2-chlorophenyl)-2-((6-fluorobenzo[d]oxazol-2-yl)amino)-6-methyl-1,4-dihydropyrimidine-5-carboxamido)-4-methoxybenzoic acid]",2.17,>30,53.3,12.2,,,,,,,
"COC(=O)c1ccnc(NC(=O)C2=C(C)NC(Nc3nc4ccc(F)cc4o3)=N[C@H]2c2ccccc2Cl)c1 [Compound 31, (R)-methyl 2-(4-(2-chlorophenyl)-2-((6-fluorobenzo[d]oxazol-2-yl)amino)-6-methyl-1,4-dihydropyrimidine-5-carboxamido)isonicotinate]",3.06,30.91,,4.32,<21.9 1 × 10^−6 cm/sec,,,,,,
"COC(=O)c1ccnc(NC(=O)C2=C(C)NC(Nc3nc4ccc(F)cc4o3)=N[C@@H]2c2ccccc2Cl)c1 [Compound 32, (S)-methyl 2-(4-(2-chlorophenyl)-2-((6-fluorobenzo[d]oxazol-2-yl)amino)-6-methyl-1,4-dihydropyrimidine-5-carboxamido)isonicotinate]",12.2,24.28,,86.3,<7.4 1 × 10^−6 cm/sec,,,,,,
"CNCCNC(=O)C1=C(C)NC(Nc2nc3ccc(F)cc3o2)=NC1c1ccccc1Cl (stereo not shown) [Compound 33, 4-(2-chlorophenyl)-2-((6-fluorobenzo[d]oxazol-2-yl)amino)-6-methyl-N-(2-(methylamino)ethyl)-1,4-dihydropyrimidine-5-carboxamido]",15.3,>30,>67,6.11,,,,,,,
"CC1=C(C(=O)Nc2ccc(CO)cn2)C(c2ccccc2Cl)N=C(Nc2nc3ccc(F)cc3o2)N1 (stereo not shown) [Compound 42, 4-(2-chlorophenyl)-2-((6-fluorobenzo[d]oxazol-2-yl)amino)-N-(5-(hydroxymethyl)pyridin-2-yl)-6-methyl-1,4-dihydropyrimidine-5-carboxamide]",12.2,>30,<1,19.3,,,,,,,
"CCn1cc(CNC(=O)C2=C(C)NC(Nc3nc4cccc(N)c4o3)=NC2c2ccc(F)cc2Cl)cn1 (stereo not shown) [Compound 118, 2-((7-aminobenzo[d]oxazol-2-yl)amino)-4-(2-chloro-4-fluorophenyl)-N-((1-ethyl-1H-pyrazol-4-yl)methyl)-6-methyl-1,4-dihydropyrimidine-5-carboxamide]",0.76,,,7.69,,18.81,188.9 1 × 10^−6 cm/sec,,,,
"CC1=C(C(=O)Nc2ccccc2F)C(c2ccccc2Cl)N=C(Nc2nc3ccccc3o2)N1 (stereo not shown) [Compound 157, 2-(benzo[d]oxazol-2-ylamino)-N-(2-fluorophenyl)-4-(2-chlorophenyl)-6-methyl-1,4-dihydropyrimidine-5-carboxamide]",7.69,,,9.68,,>30,,<1,,9.68,
"CC1=C(C(=O)Nc2ccc(CN)cc2)C(c2ccccc2Cl)N=C(Nc2nc3ccccc3o2)N1 (stereo not shown) [Compound 169, N-(4-(aminomethyl)phenyl)-2-(benzo[d]oxazol-2-ylamino)-4-(2-chlorophenyl)-6-methyl-1,4-dihydropyrimidine-5-carboxamide]",6.11,,,4.32,,72.47,,10.0,,4.32,6.11
"CC1=C(C(=O)Nc2ccc(C(=O)N3CCOCC3)cc2)C(c2ccccc2Cl)N=C(Nc2nc3ccccc3o2)N1 (stereo not shown) [Compound 182, 2-(benzo[d]oxazol-2-ylamino)-4-(2-chlorophenyl)-6-methyl-N-(4-(morpholine-4-carbonyl)phenyl)-1,4-dihydropyrimidine-5-carboxamide]",19.3,,,21.7,,>30,,<1,,21.7,19.3
"CC1=C(C(=O)Nc2ccc(-n3cncn3)cc2)C(c2ccccc2Cl)N=C(Nc2nc3ccccc3o2)N1 (stereo not shown) [Compound 191, N-(4-(1H-1,2,4-triazol-1-yl)phenyl)-2-(benzo[d]oxazol-2-ylamino)-4-(2-chlorophenyl)-6-methyl-1,4-dihydropyrimidine-5-carboxamide]",24.3,,,34.3,,,,,,34.3,24.3
"CC1=C(C(=O)Nc2cccc(CCO)c2)C(c2ccccc2Cl)N=C(Nc2nc3ccccc3o2)N1 (stereo not shown) [Compound 201, 2-(benzo[d]oxazol-2-ylamino)-4-(2-chlorophenyl)-N-(3-(2-hydroxyethyl)phenyl)-6-methyl-1,4-dihydropyrimidine-5-carboxamide]",17.2,,,,,26.59,,,,,17.2
"CC1=C(C(=O)NCc2ccccc2O)C(c2ccccc2Cl)N=C(Nc2nc3ccccc3o2)N1 (stereo not shown) [Compound 219, 2-(benzo[d]oxazol-2-ylamino)-4-(2-chlorophenyl)-N-(2-hydroxybenzyl)-6-methyl-1,4-dihydropyrimidine-5-carboxamide]",,,,10.9,,5.188,<19.3 1 × 10^−6 cm/sec,,,10.9,6.85

# Next, values leading:
"IC50 [1, 6] [µM]",Metab. Stabil. (m) ([2]; microsomal half-life),Sol. [3] [µg/mL],"IC50 [4, 7] [µM]",Perm. (1 × 10^−6 cm/sec) [5],Metab. Stabil. (m) ([2]; microsomal stability half-life),Perm. (1 × 10^−6 cm/sec) ([5]; PAMPA),Sol. ([3]; aqueous kinetic solubility) [µg/mL],"mGALK (μM) ([4]; recombinant mouse GALK1, Kinase-Glo Plus ATP depletion)","IC50 [4, 8] [µM]","IC50 [1, 9] [µM]",SMILES
4.85,,,,,30.79,,<1,in- active,,,"CC1=C(C(=O)Nc2ccc(Cl)cn2)C(c2ccccc2Cl)N=C(Nc2nc3ccccc3o2)N1 (stereo not shown) [Compound 153, 2-(benzo[d]oxazol-2-ylamino)-4-(2-chlorophenyl)-N-(5-chloropyridin-2-yl)-6-methyl-1,4-dihydropyrimidine-5-carboxamide]"
6.85,,,12.2,,>30,,<1,,12.2,,"CC1=C(C(=O)Nc2cccc(F)c2)C(c2ccccc2Cl)N=C(Nc2nc3ccccc3o2)N1 (stereo not shown) [Compound 158, 2-(benzo[d]oxazol-2-ylamino)-N-(3-fluorophenyl)-4-(2-chlorophenyl)-6-methyl-1,4-dihydropyrimidine-5-carboxamide]"
3.85,,,9.68,,>30,<14.5 1 × 10^−6 cm/sec,,,9.68,,"CC1=C(C(=O)Nc2ccc(O)cc2)C(c2ccccc2Cl)N=C(Nc2nc3ccccc3o2)N1 (stereo not shown) [Compound 162, 2-(benzo[d]oxazol-2-ylamino)-N-(4-hydroxyphenyl)-4-(2-chlorophenyl)-6-methyl-1,4-dihydropyrimidine-5-carboxamide]"
6.11,,,,,8.0854,,<1,,,6.11,"COC(=O)Cc1nnc(NC(=O)C2=C(C)NC(Nc3nc4ccccc4o3)=NC2c2ccccc2Cl)s1 (stereo not shown) [Compound 174, methyl 2-(5-(2-(benzo[d]oxazol-2-ylamino)-4-(2-chlorophenyl)-6-methyl-1,4-dihydropyrimidine-5-carboxamido)-1,3,4-thiadiazol-2-yl)acetate]"
7.69,,,17.2,,>30,,<1,,17.2,7.69,"CC1=C(C(=O)Nc2cccc(C(N)=O)c2)C(c2ccccc2Cl)N=C(Nc2nc3ccccc3o2)N1 (stereo not shown) [Compound 177, 2-(benzo[d]oxazol-2-ylamino)-N-(3-carbamoylphenyl)-4-(2-chlorophenyl)-6-methyl-1,4-dihydropyrimidine-5-carboxamide]"
9.68,,,19.3,,,,,,19.3,9.68,"CC1=C(C(=O)Nc2nc(C(=O)O)cs2)C(c2ccccc2Cl)N=C(Nc2nc3ccccc3o2)N1 (stereo not shown) [Compound 200, 2-(2-(benzo[d]oxazol-2-ylamino)-4-(2-chlorophenyl)-6-methyl-1,4-dihydropyrimidine-5-carboxamido)thiazole-4-carboxylic acid]"
4.32,,,,,>30,,60.3,,,4.32,"CC1=C(C(=O)Nc2cncc(C(=O)O)c2)C(c2ccccc2Cl)N=C(Nc2nc3ccccc3o2)N1 (stereo not shown) [Compound 202, 5-(2-(benzo[d]oxazol-2-ylamino)-4-(2-chlorophenyl)-6-methyl-1,4-dihydropyrimidine-5-carboxamido)nicotinic acid]"

# From patent US20230158025A1 (UNIVERSITY OF UTAH RESEARCH FOUNDATION, priority 2020, published 2023)
